Measured values published in patent publication US10052296B2, “Formulations for treating pain” (priority 2016, dated 2018).

Columns and labels:
motor control = assay: Mouse RotoRod/Acelerorod test; conditions: mice, 15 minute IV infusion, 10 mg Acetaminophen/mL, 8 mg Gabapentin/mL; 1, 2, 4, 6 h
Description: Mouse tail flick test was conducted to evaluate test somatic pain and mouse rotorod/acelorod test evaluated behavioral changes, specifically somnolence or dizziness
In each case a positive control was administered as described below.
Male ICR mice were trained on a RotoRod/Acelerod at a continuous accelerating speed from 4 to 30 rpm/min during a time period of 4 minutes for at least 3 times on day 0. Vehicle or test article at a single dose is administered by intravenous infusion over 15 minutes starting 30 minutes before the test period starts and chlorpromazine (30 mg/kg, PO) was administered by oral gavage 60 minutes before the start of the test period. At 1, 2, 4, and 6 hours after the start of the test the mice are placed on the accelerating rotorod (increasing from 4 to 30 rpm/min during a 4 min period) and the time (seconds) the mouse remained on the rotorod was recorded. One-way ANOVA followed by Dunnett's test is applied for comparison between vehicle control and test article groups. P<0.05 is considered significant.
A baseline was measured before administration of the test agents and at 1, 2, 4 and 6 h post the start of the study. The effect of the compounds was evaluated in the standard RotoRod/Acelerorod test.

[1] = system: rat whole blood (male), red blood cells; assay: In vitro hemolysis test, rat blood; conditions: 15 min at 37° C.; for % Hemolysis: Rat Blood; for interpretation of hemolysis to Red Blood Cells: rat whole unclotted blood, concentrations tested
Description: (§1) APAP and GBP alone or in combination were evaluated in the in vitro hemolysis test using four biologic matrices (mouse, rat, dog and human whole unclotted blood) to determine the hemolytic potential for each on red blood cells.

[2] = Koshy et al; cited from earlier work
[3] = Pharmacokinetics in rats after 15 min IV infusion; conditions: for AUC / Cmax: male, rat, plasma, iv
Description: Formulation compositions were prepared by dissolving GBP and/or APAP as indicated in Table 5 and the pH was adjusted to 5.5 using HCl or NaOH.
Blood samples were collected over a 24 h period at which time the rats were exsanguinated and blood collected for Clinical Pathology (Chemistry, Hematology and Coagulation) evaluation. Finally, all animals were necropsied (all exterior and interior cavities and organs were examined) and the site of infusion in the jugular vein, lung, liver and kidney underwent histopathologic evaluation.

[4] = system: mouse whole blood (male), red blood cells; assay: In vitro hemolysis test, mouse blood; conditions: 15 min at 37° C.; for % Hemolysis: Mouse Blood; for interpretation of hemolysis to Red Blood Cells: mouse whole unclotted blood, concentrations tested
Description: as §1

[5] = system: beagle dog whole blood (male), red blood cells; assay: In vitro hemolysis test, dog blood; conditions: 15 min at 37° C.; for % Hemolysis: Dog Blood; for interpretation of hemolysis to Red Blood Cells: dog whole unclotted blood, concentrations tested
Description: as §1

[6] = system: human (pooled) whole blood, red blood cells; assay: In vitro hemolysis test, human blood; conditions: 15 min at 37° C.; for % Hemolysis: Human Blood; for interpretation of hemolysis to Red Blood Cells: human whole unclotted blood, concentrations tested
Description: as §1

[7] = Stability of gabapentin in presence of different stabilizers and solvents; assay type: physicochemical; conditions: GBP 9 mg/mL in acetate buffer
Description: GBP containing formulations were prepared by dissolving GBP to a concentration of 9 mg/mL in acetate buffer. A first set of samples were tested for assay and impurities after the initial preparation of formulation. Another set of samples were steam sterilized at 121° C. for 15 min and were tested for assay and impurity levels.

rats = assay: Toxicologic profile in rats (clinical pathology, necropsy, histopathology)

CC(=O)Nc1ccc(O)cc1 [Acetaminophen]
decrease in motor control compared to the vehicle control (motor control): no statistically significant decrease in motor control | % Hemolysis ([1]; APAP 5 mg/mL): 0% | % Hemolysis ([1]; APAP 10 mg/mL): 0% | interpretation of hemolysis to Red Blood Cells [1]: not considered to be hemolytic | pH range of minimum hydrolysis of APAP [2]: 5-7 | AUC ([3]; Acetaminophen PK AUC, 15 min IV infusion): 7280 ng·h/mL | Cmax ([3]; Acetaminophen PK Cmax, 15 min IV infusion): 10100 ng/mL | AUC ([3]; Bioequivalent Range (80-125%) AUC, 15 min IV infusion, 80-125% of single-drug value): 5830 to 9110 ng·h/mL | Cmax ([3]; Bioequivalent Range (80-125%) Cmax, 15 min IV infusion, 80-125% of single-drug value): 8110 to 12700 ng/mL | % Hemolysis ([4]; APAP 5 mg/mL): 4% | % Hemolysis ([4]; APAP 10 mg/mL): 4% | interpretation of hemolysis to Red Blood Cells [4]: not considered to be hemolytic | % Hemolysis ([5]; APAP 5 mg/mL): 0% | % Hemolysis ([5]; APAP 10 mg/mL): 5% | interpretation of hemolysis to Red Blood Cells [5]: not considered to be hemolytic | % Hemolysis ([6]; APAP 5 mg/mL): 0% | % Hemolysis ([6]; APAP 10 mg/mL): 0% | interpretation of hemolysis to Red Blood Cells [6]: not considered to be hemolytic

1-(aminomethyl) cyclohexane acetic acid [Gabapentin]
decrease in motor control compared to the vehicle control (motor control): no statistically significant decrease in motor control | % Hemolysis ([1]; GBP 2 mg/mL): 0% | % Hemolysis ([1]; GBP 4 mg/mL): 0% | % Hemolysis ([1]; GBP 8 mg/mL): 0% | interpretation of hemolysis to Red Blood Cells [1]: not considered to be hemolytic | order of stability of GBP in solvents and stabilizers [7]: PVP>Glycine>Lysine>Propylene Glycol>Sorbitol>PEG400>Glycerol>Mannitol>Sodium Oleate>β-cyclodextrin>Deoxychloic Acid>CMC>L-Glutamic Acid | stability of GBP with stabilizer ([7]; PVP at 10 mg/mL): more stable | Clinical Pathology (Clinical Chemistry, Hematology or Coagulation Parameters) (rats; 24 h after 15 minute IV infusion): did not alter the Clinical Pathology | histopathology of tissues compared to vehicle control (rats; infusion site, lung, liver, kidney): no changes in the histopathology | Gabapentin PK AUC ([3]; 15 min IV infusion): 37,663 ng · h/mL | Gabapentin PK Cmax ([3]; 15 min IV infusion): 20,138 ng/mL | PK profile of GBP ([3]; in the presence of APAP): no change | % Hemolysis ([4]; GBP 2 mg/mL): 0% | % Hemolysis ([4]; GBP 4 mg/mL): 0% | % Hemolysis ([4]; GBP 8 mg/mL): 0% | interpretation of hemolysis to Red Blood Cells [4]: not considered to be hemolytic | % Hemolysis ([5]; GBP 2 mg/mL): 0% | % Hemolysis ([5]; GBP 4 mg/mL): 0% | % Hemolysis ([5]; GBP 8 mg/mL): 0% | interpretation of hemolysis to Red Blood Cells [5]: not considered to be hemolytic | % Hemolysis ([6]; GBP 2 mg/mL): 0% | % Hemolysis ([6]; GBP 4 mg/mL): 2% | % Hemolysis ([6]; GBP 8 mg/mL): 0% | interpretation of hemolysis to Red Blood Cells [6]: not considered to be hemolytic
